Assay results reported in US9394539B1, “Survival motor neuron gene (SMN2) mRNA constructs for post-transcription regulation” (PTC Therapeutics, Inc., priority 2007, dated 2016).

Columns and labels:
[1] = test system: 5′-UTR and 3′-UTR of the target SMN2 mRNA; experiment: Luciferase reporter gene screening assay in stable 293H cells (fLuc flanked by SMN2 5′-UTR and 3′-UTR); type: cell-based, human; details: 7.5 μM test concentration, 24 hours, vs negative control (0.5% DMSO)
Description: Stable 293H cell lines containing the firefly luciferase (fLuc) gene flanked by one of SMN1 or SMN2 5′-UTR and 3′-UTR were cultured in DMEM medium supplemented with 10% FBS and 200 ug/mL hygromycin in Fisher T175 flasks. The cells were passaged every 4 days at 1:10 dilution. Cultures are kept in a 37° C. and 5% CO2 incubator. The cells were scaled-up over a three day period before performing the assay. Two confluent T175 flasks were split into twenty T175 flasks (1:10 dilution). Cells were harvested from each confluent flask by removing all of the media and adding 4 mL of warmed trypsin to dislodge the cells. After the cells were dislodged, 16 mL of selective media was added for a final volume of 20 mL. The cells were expanded by adding 2 mL of the harvested cells into ten new T175 flasks plus 25 ml, of selective media. The twenty new flasks are placed into the 37° C., 5% CO2 incubator. On the day the assay was performed, the media was removed from the flasks and 3 mL of warmed trypsin was added to dislodge the cells. After the cells were dislodged, 10 mL of nonselective media was to the flask. This was repeated for all twenty flasks and combined into one flask. 100 μL of the above cell culture plus 100 μL of Trypan Blue stain was counted on a hemocytometer. Cells were plated in the presence of 2 μL of a compound to be tested (at final concentration of 7.5 μM with 0.5% DMSO).
The firefly luciferase substrate used was Luc Lite Plus Packard #6016969. Luciferase activity was immediately assayed using a ViewLux Imaging system (Perkin Elmer).
The screening assay was performed by preparing a plates containing test compounds and controls, including wells that contained only vehicle or a high inhibitor concentration and wells that provided an 8-point dose response curve of puromycin, a non-specific standard control inhibitor. The cells were grown overnight in the presence of compounds or controls at 37° C. in 5% CO2. […] After 24 hours, the amount of luminescence was determined using a ViewLux Imaging system (Perkin Elmer). […]

[2] = CellTiter-Glo cytotoxicity assay, Huh7 cells; type: cell-based; details: human, Huh7 hepatoblastoma cells, intermediate level of sensitivity
[3] = CellTiter-Glo cytotoxicity assay, U937 cells; type: cell-based; details: human, U937 monocyte cells, relatively sensitive cell line
Description: (§1) To evaluate cytotoxicity of the compounds in the neuroblastoma MC-IXC cell line, the CellTiter-Glo assay (Promega) was utilized. CellTiter-Glo determines the number of viable cells in culture based on quantification of the ATP present, which signals the presence of metabolically active cells. A reduction in cellular ATP is indicative of a cytotoxic or cytostatic effect. The compounds are tested in a 7-point dose response from 30 μM to 0.38 μM. Doxorubicin, a known cytotoxic compound, are used to address the sensitivity of the tested cell line. For relatively sensitive cell lines, such as U937 (a human monocyte cell line), the CC50 of doxorubicin ranges from 4 to 10 nM.

[4] = CellTiter-Glo cytotoxicity assay, MC-IXC cells; type: cell-based; details: human, MC-IXC neuroblastoma cells, CellTiter-Glo (ATP)
Description: as §1

Row | SMILES | Ratio (fold increase in target mRNA (SMN2) compared to negative control) [1] | CC50 [2] | CC50 [3] | CC50 [4]
1 | Cc1ccc2nc(-c3ccc(/N=C/c4ccc(Br)s4)cc3)sc2c1 [Cpd 1, (E)-N-((5-bromothiophen-2-yl)methylene)-4-(6-methylbenzo[d]thiazol-2-yl)aniline] | * (one star (*) represents active compounds with a fold increase ratio in a range greater than 1.3 up to 1.6) | – | – | –
2 | CC(C)(C)C(C)(O)C#Cc1ccccc1 (stereo not drawn) [Cpd 2, 3,4,4-trimethyl-1-phenylpent-1-yn-3-ol] | ** (two stars (**) represent active compounds with a fold increase ratio in a range greater than 1.6 up to 1.8) | – | – | –
3 | c1ccc(-n2ncc3c(NC4CCCCC4)ncnc32)cc1 [Cpd 4, N-cyclohexyl-1-phenyl-1H-pyrazolo[3,4-d]pyrimidin-4-amine] | ** (two stars (**) represent active compounds with a fold increase ratio in a range greater than 1.6 up to 1.8) | – | – | –
4 | COc1cccc2c1C(=O)c1c(O)c3c(c(O)c1C2=O)C[C@@](O)(C(=O)CO)C[C@@H]3O[C@H]1C[C@H](N)[C@H](O)[C@H](C)O1 [doxorubicin] | – | 70 to 300 nM | 4 to 10 nM | 12 nM
